Reference: the NIST ThermoML archive (doi:10.1021/je0601356)
Values joined by “and” are separate entries in the source; they are usually repeats but may differ in a detail not shown here. Equal values may be shown once. Numbers after ± are expanded uncertainties.

Conditions: Liquid, Vibrating wire viscometry

FC(F)C(F)(F)F [pentafluoroethane]
Conditions	viscosity
253.99 K, 1440 kPa	0.2707 ± 0.0071 mPa·s
253.99 K, 1450 kPa	0.271 ± 0.0071 mPa·s
253.99 K, 1460 kPa	0.271 ± 0.0071 mPa·s
253.99 K, 1470 kPa	0.2711 ± 0.0071 mPa·s
253.99 K, 1480 kPa	0.2707 ± 0.0071 mPa·s
253.99 K, 3250 kPa	0.2794 ± 0.0072 mPa·s
253.99 K, 3280 kPa	0.2794 ± 0.0072 mPa·s and 0.279 ± 0.0072 mPa·s and 0.2789 ± 0.0072 mPa·s
253.99 K, 5050 kPa	0.2876 ± 0.0074 mPa·s
253.99 K, 5060 kPa	0.2874 ± 0.0074 mPa·s
253.99 K, 5100 kPa	0.2875 ± 0.0074 mPa·s
253.99 K, 5140 kPa	0.2875 ± 0.0074 mPa·s
253.99 K, 7350 kPa	0.2984 ± 0.0076 mPa·s
253.99 K, 7360 kPa	0.2984 ± 0.0076 mPa·s
253.99 K, 7380 kPa	0.2982 ± 0.0076 mPa·s
263.23 K, 1430 kPa	0.2381 ± 0.0065 mPa·s
263.23 K, 1440 kPa	0.2373 ± 0.0065 mPa·s and 0.2375 ± 0.0065 mPa·s
263.23 K, 1460 kPa	0.2382 ± 0.0065 mPa·s
263.23 K, 1480 kPa	0.2377 ± 0.0065 mPa·s
263.23 K, 3050 kPa	0.2452 ± 0.0066 mPa·s
263.23 K, 3060 kPa	0.2453 ± 0.0066 mPa·s
263.23 K, 3070 kPa	0.2456 ± 0.0066 mPa·s
263.23 K, 5030 kPa	0.2531 ± 0.0068 mPa·s
263.23 K, 5050 kPa	0.2529 ± 0.0068 mPa·s
263.23 K, 5060 kPa	0.2535 ± 0.0068 mPa·s
263.23 K, 5070 kPa	0.2538 ± 0.0068 mPa·s
263.23 K, 5080 kPa	0.2538 ± 0.0068 mPa·s
263.23 K, 5110 kPa	0.2534 ± 0.0068 mPa·s
263.23 K, 7530 kPa	0.2643 ± 0.007 mPa·s
263.23 K, 7560 kPa	0.2645 ± 0.007 mPa·s
263.23 K, 7610 kPa	0.2645 ± 0.007 mPa·s
263.23 K, 7640 kPa	0.2646 ± 0.007 mPa·s
263.23 K, 9770 kPa	0.2743 ± 0.0071 mPa·s
263.23 K, 9800 kPa	0.274 ± 0.0071 mPa·s
263.23 K, 9820 kPa	0.2745 ± 0.0072 mPa·s
273.08 K, 1460 kPa	0.2076 ± 0.006 mPa·s
273.08 K, 1480 kPa	0.2075 ± 0.006 mPa·s
273.08 K, 1490 kPa	0.2074 ± 0.006 mPa·s
273.08 K, 1500 kPa	0.2074 ± 0.006 mPa·s and 0.2073 ± 0.006 mPa·s
273.08 K, 2940 kPa	0.2147 ± 0.0061 mPa·s
273.08 K, 2950 kPa	0.2145 ± 0.0061 mPa·s
273.08 K, 2990 kPa	0.2145 ± 0.0061 mPa·s
273.08 K, 5020 kPa	0.2234 ± 0.0063 mPa·s
273.08 K, 5030 kPa	0.2229 ± 0.0062 mPa·s and 0.2233 ± 0.0063 mPa·s
273.08 K, 5040 kPa	0.2224 ± 0.0062 mPa·s and 0.2226 ± 0.0062 mPa·s
273.08 K, 7480 kPa	0.2324 ± 0.0064 mPa·s
273.08 K, 7490 kPa	0.2327 ± 0.0064 mPa·s and 0.2324 ± 0.0064 mPa·s
273.08 K, 7510 kPa	0.2324 ± 0.0064 mPa·s
273.08 K, 7520 kPa	0.2326 ± 0.0064 mPa·s
273.08 K, 7530 kPa	0.2324 ± 0.0064 mPa·s
273.08 K, 9680 kPa	0.2416 ± 0.0066 mPa·s
273.08 K, 9690 kPa	0.2419 ± 0.0066 mPa·s and 0.2421 ± 0.0066 mPa·s
273.08 K, 9710 kPa	0.2416 ± 0.0066 mPa·s
283.29 K, 1550 kPa	0.1781 ± 0.0055 mPa·s
283.29 K, 1580 kPa	0.1789 ± 0.0055 mPa·s
283.29 K, 1590 kPa	0.1788 ± 0.0055 mPa·s
283.29 K, 1600 kPa	0.1785 ± 0.0055 mPa·s
283.29 K, 1620 kPa	0.1783 ± 0.0055 mPa·s
283.29 K, 3000 kPa	0.1852 ± 0.0056 mPa·s
283.29 K, 3010 kPa	0.185 ± 0.0056 mPa·s
283.29 K, 3030 kPa	0.1852 ± 0.0056 mPa·s
283.29 K, 3060 kPa	0.185 ± 0.0056 mPa·s
283.29 K, 5190 kPa	0.1957 ± 0.0058 mPa·s
283.29 K, 5220 kPa	0.1955 ± 0.0058 mPa·s [middle of 4 runs]
283.29 K, 5230 kPa	0.1953 ± 0.0058 mPa·s
283.29 K, 5270 kPa	0.1956 ± 0.0058 mPa·s
283.29 K, 7590 kPa	0.2059 ± 0.006 mPa·s
283.29 K, 7600 kPa	0.2057 ± 0.006 mPa·s [middle of 5 runs]
283.29 K, 10040 kPa	0.2155 ± 0.0061 mPa·s and 0.2159 ± 0.0061 mPa·s
283.29 K, 10050 kPa	0.2155 ± 0.0061 mPa·s
283.29 K, 10070 kPa	0.2155 ± 0.0061 mPa·s
283.29 K, 10080 kPa	0.2157 ± 0.0061 mPa·s
293.13 K, 2020 kPa	0.1577 ± 0.0052 mPa·s
293.13 K, 2030 kPa	0.1581 ± 0.0052 mPa·s
293.13 K, 2070 kPa	0.1583 ± 0.0052 mPa·s
293.13 K, 2100 kPa	0.1584 ± 0.0052 mPa·s
293.13 K, 2110 kPa	0.1583 ± 0.0052 mPa·s
293.13 K, 2140 kPa	0.1583 ± 0.0052 mPa·s
293.13 K, 5080 kPa	0.172 ± 0.0054 mPa·s
293.13 K, 5100 kPa	0.1716 ± 0.0054 mPa·s
293.13 K, 5130 kPa	0.1719 ± 0.0054 mPa·s and 0.1715 ± 0.0054 mPa·s
293.13 K, 7530 kPa	0.1818 ± 0.0056 mPa·s and 0.1813 ± 0.0056 mPa·s and 0.1811 ± 0.0056 mPa·s
293.13 K, 9990 kPa	0.1918 ± 0.0057 mPa·s
293.13 K, 10030 kPa	0.1915 ± 0.0057 mPa·s
293.13 K, 10040 kPa	0.1917 ± 0.0057 mPa·s [middle of 4 runs]
293.13 K, 10050 kPa	0.1914 ± 0.0057 mPa·s
